Assay results: patent US12492173B2, “Herbicidal substituted N-tetrazolyl aryl carboxamides” (Bayer Aktiengesellschaft, priority 2019, dated 2025)

Legend:
Assay type in all cases: in vivo
Cyperus esculentus [1] = experiment: Post-emergence herbicidal action, CYPES; set-up: key: % herbicidal action vs untreated; 100 = plants died, 0 = like control
Method: (§1) [table] 2. Post-Emergence Herbicidal Action Against Harmful Plants Seeds of monocotyledonous and dicotyledonous weed and crop plants are laid out in sandy loam soil in wood-fiber pots, covered with soil and cultivated in a greenhouse under good growth conditions. 2 to 3 weeks after sowing, the test plants are treated at the one-leaf stage. The compounds of the invention, formulated in the form of wettable powders (WP) or as emulsion concentrates (EC), are then sprayed onto the green parts of the plants in the form of an aqueous suspension or emulsion at a water application rate equating to 600 to 800 l/ha, with addition of 0.2% wetting agent. After the test plants have been left to stand in the greenhouse under optimal growth conditions for about 3 weeks, the action of the preparations is assessed visually in comparison to untreated controls (herbicidal action in percent (%): 100% activity=the plants have died, 0% activity=like control plants). […] The tables below illustrate, in an exemplary manner, the post-emergence herbicidal action of the compounds according to the invention, the herbicidal activity being stated in percent. In the experiments that follow, herbicidal action of numerous inventive compounds and the known compounds that are structurally closest from D1 (WO 2012/028579 A1) and D2 (WO 2018/202535 A1) were compared under the above-specified conditions by the pre-emergence and post-emergence method. The example numbers given in the tables relate to the compounds disclosed in the respective documents. In addition to the compounds disclosed in D1 and D2, the following compounds V-1 to V-14 that are encompassed by D1 or D2 but are not compounds specified therein were used in the comparative experiments: • V-1: 2-(methylsulfanyl)-3-(methylsulfinyl)-N-(1-methyl-1H-tetrazol-5-yl)-4-(trifluoromethyl)benzamide • V-2: 2-(methylsulfanyl)-3-(methylsulfonyl)-N-(1-methyl-1H-tetrazol-5-yl)-4-(trifluoromethyl)benzamide • V-3: 2,3-bis(ethylsulfanyl)-N-(1-methyl-1H-tetrazol-5-yl)-4-(trifluoromethyl)benzamide • V-4: 2-chloro-3-(ethylsulfanyl)-N-(1-methyl-1H-tetrazol-5-yl)-4-(trifluoromethyl)benzamide • V-5: 2-chloro-4-iodo-3-(methylsulfanyl)-N-(1-methyl-1H-tetrazol-5-yl)benzamide • V-6: 2-chloro-4-iodo-3-(methylsulfinyl)-N-(1-methyl-1H-tetrazol-5-yl)benzamide • V-7: 2-chloro-4-iodo-3-(methylsulfonyl)-N-(1-methyl-1H-tetrazol-5-yl)benzamide • V-8: 2-bromo-3-(methylsulfanyl)-N-(1-methyl-1H-tetrazol-5-yl)-4-(trifluoromethyl)benzamide • V-9: 2-bromo-3-(methylsulfinyl)-N-(1-methyl-1H-tetrazol-5-yl)-4-(trifluoromethyl)benzamide • V-10: 2-bromo-3-(methylsulfonyl)-N-(1-methyl-1H-tetrazol-5-yl)-4-(trifluoromethyl)benzamide • V-11: 2-bromo-3-(ethylsulfanyl)-N-(1-methyl-1H-tetrazol-5-yl)-4-(trifluoromethyl)benzamide • V-12: 2-bromo-3-(ethylsulfinyl)-N-(1-methyl-1H-tetrazol-5-yl)-4-(trifluoromethyl)benzamide • V-13: 2-bromo-3-(ethylsulfonyl)-N-(1-methyl-1-1H-tetrazol-5-yl)-4-(trifluoromethyl)benzamide • V-14: 2-cyclopropyl-3-(ethylsulfanyl)-N-(1-methyl-1H-tetrazol-5-yl)-4-(trifluoromethyl)benzamide Herbicidal Pre-Emergence Action: […]

Hordeum murinum = experiment: Post-emergence herbicidal action, HORMU; set-up: key: % herbicidal action: 100 = plants died, 0 = like control; conditions: Dosage 80 g/ha
Method: as §1

Lolium multiflorum = experiment: Post-emergence herbicidal action, LOLMU; set-up: key: % herbicidal action: 100 = plants died, 0 = like control
Method: as §1

Digitaria sanguinalis [2] = experiment: Pre-emergence herbicidal action, DIGSA; conditions: dosage 320 g/ha, scored visually after 3 weeks vs untreated controls (100% = plants have died)
Description: 1. Pre-Emergence Herbicidal Action Against Harmful Plants Seeds of monocotyledonous and dicotyledonous weed plants and crop plants are laid out in sandy loam soil in wood-fiber pots and covered with soil. The compounds of the invention, formulated in the form of wettable powders (WP) or as emulsion concentrates (EC), are then applied to the surface of the covering soil in the form of an aqueous suspension or emulsion at a water application rate equating to 600 to 800 l/ha, with addition of 0.2% wetting agent. After the treatment, the pots are placed in a greenhouse and kept under good growth conditions for the trial plants. The damage to the test plants is scored visually after a test period of 3 weeks by comparison with untreated controls (herbicidal activity in percent (%): 100% activity=the plants have died, 0% activity=like control plants). […] The tables below illustrate, in an exemplary manner, the […] herbicidal action of the compounds according to the invention, the herbicidal activity being stated in percent. [table] In the experiments that follow, herbicidal action of numerous inventive compounds and the known compounds that are structurally closest from D1 (WO 2012/028579 A1) and D2 (WO 2018/202535 A1) were compared under the above-specified conditions by the pre-emergence and post-emergence method. The example numbers given in the tables relate to the compounds disclosed in the respective documents. In addition to the compounds disclosed in D1 and D2, the following compounds V-1 to V-14 that are encompassed by D1 or D2 but are not compounds specified therein were used in the comparative experiments: • V-1: 2-(methylsulfanyl)-3-(methylsulfinyl)-N-(1-methyl-1H-tetrazol-5-yl)-4-(trifluoromethyl)benzamide • V-2: 2-(methylsulfanyl)-3-(methylsulfonyl)-N-(1-methyl-1H-tetrazol-5-yl)-4-(trifluoromethyl)benzamide • V-3: 2,3-bis(ethylsulfanyl)-N-(1-methyl-1H-tetrazol-5-yl)-4-(trifluoromethyl)benzamide • V-4: 2-chloro-3-(ethylsulfanyl)-N-(1-methyl-1H-tetrazol-5-yl)-4-(trifluoromethyl)benzamide • V-5: 2-chloro-4-iodo-3-(methylsulfanyl)-N-(1-methyl-1H-tetrazol-5-yl)benzamide • V-6: 2-chloro-4-iodo-3-(methylsulfinyl)-N-(1-methyl-1H-tetrazol-5-yl)benzamide • V-7: 2-chloro-4-iodo-3-(methylsulfonyl)-N-(1-methyl-1H-tetrazol-5-yl)benzamide • V-8: 2-bromo-3-(methylsulfanyl)-N-(1-methyl-1H-tetrazol-5-yl)-4-(trifluoromethyl)benzamide • V-9: 2-bromo-3-(methylsulfinyl)-N-(1-methyl-1H-tetrazol-5-yl)-4-(trifluoromethyl)benzamide • V-10: 2-bromo-3-(methylsulfonyl)-N-(1-methyl-1H-tetrazol-5-yl)-4-(trifluoromethyl)benzamide • V-11: 2-bromo-3-(ethylsulfanyl)-N-(1-methyl-1H-tetrazol-5-yl)-4-(trifluoromethyl)benzamide • V-12: 2-bromo-3-(ethylsulfinyl)-N-(1-methyl-1H-tetrazol-5-yl)-4-(trifluoromethyl)benzamide • V-13: 2-bromo-3-(ethylsulfonyl)-N-(1-methyl-1-1H-tetrazol-5-yl)-4-(trifluoromethyl)benzamide • V-14: 2-cyclopropyl-3-(ethylsulfanyl)-N-(1-methyl-1H-tetrazol-5-yl)-4-(trifluoromethyl)benzamide Herbicidal Pre-Emergence Action: […]

Digitaria sanguinalis [3] = experiment: Post-emergence herbicidal action, DIGSA; set-up: key: % herbicidal action: 100 = plants died, 0 = like control; conditions: Dosage 80 g/ha
Method: as §1

Cyperus esculentus [4] = experiment: Pre-emergence herbicidal action, CYPES; set-up: key: % activity: 100 = plants have died, 0 = like control plants; conditions: comparative experiment, 20 g of a.i./ha
Method in brief: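 Seeds sown in sandy loam in pots and covered with soil; compounds formulated as WP or EC were sprayed onto the soil surface as aqueous suspension/emulsion at 600 to 800 l/ha water with 0.2% wetting agent. Greenhouse growth; visual damage scored after 3 weeks versus untreated controls (100% = plants died, 0% = like control).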

Structure (SMILES): Cn1nnnc1NC(=O)c1ccc(C(F)(F)F)c(CSCC(F)(F)F)c1Cl [Example 1-311]
- herbicidal action CYPES (Cyperus esculentus [1]; Dosage 80 g/ha): 100
- herbicidal action HORMU (Hordeum murinum): 100

Structure (SMILES): COc1c(C(=O)Nc2nnnn2C)ccc(Cl)c1CSC [Example 1-570]
- Herbicidal action against CYPES (Cyperus esculentus [1]; comparative experiment, post-emergence, 5 g of a.i./ha): 60

Structure (SMILES): CCSCc1c(C(F)F)ccc(C(=O)Nc2nnnn2C)c1Cl [Example 1-323]
- herbicidal action CYPES (Cyperus esculentus [1]; post-emergence, dosage 80 g/ha): 80%
- herbicidal action LOLMU (Lolium multiflorum; post-emergence, dosage 80 g/ha): 90%

Structure (SMILES): CCn1nnnc1NC(=O)c1ccc(C(F)F)c(CS(C)(=O)=O)c1Cl [Example 2-322]
- herbicidal action LOLMU (Lolium multiflorum; post-emergence, dosage 80 g/ha): 80%

Structure (SMILES): CCn1nnnc1NC(=O)c1ccc(I)c(C[S+](C)[O-])c1Cl (stereo not drawn) [Example 2-363]
- herbicidal action HORMU (Hordeum murinum): 90

Structure (SMILES): CCn1nnnc1NC(=O)c1ccc(C(F)F)c(CSC)c1Cl [Example 2-320]
- herbicidal action CYPES (Cyperus esculentus [1]; Dosage 80 g/ha): 80
- herbicidal action LOLMU (Lolium multiflorum; Dosage 80 g/ha): 80

Structure (SMILES): Cn1nnnc1NC(=O)c1ccc(C(F)(F)F)c(CS(C)(=O)=O)c1C(F)(F)C(F)(F)F [Example 1-552]
- herbicidal activity DIGSA (Digitaria sanguinalis [2]): 100%
- herbicidal action DIGSA (Digitaria sanguinalis [3]): 90

Structure (SMILES): CCCn1nnnc1NC(=O)c1ccc(C(F)(F)F)c(CS(C)(=O)=O)c1Br [Example 3-382]
- herbicidal action CYPES (Cyperus esculentus [1]; Dosage 80 g/ha): 80

Structure (SMILES): CCCn1nnnc1NC(=O)c1ccc(C(F)(F)F)c(CS(C)(=O)=O)c1SC [Example 3-163]
- herbicidal action HORMU (Hordeum murinum): 80

Structure (SMILES): CCSCc1c(C(F)(F)F)ccc(C(=O)Nc2nnnn2CC)c1Cl [Example 2-299]
- herbicidal action CYPES (Cyperus esculentus [1]; post-emergence, dosage 80 g/ha): 90%
- herbicidal action LOLMU (Lolium multiflorum; post-emergence, dosage 80 g/ha): 90%

Structure (SMILES): CSCc1c(C(F)F)ccc(C(=O)Nc2nnnn2C)c1Cl [Example 1-320]
- Herbicidal action against CYPES (Cyperus esculentus [4]): 80
- herbicidal action CYPES (Cyperus esculentus [1]; Dosage 80 g/ha): 80
- herbicidal action LOLMU (Lolium multiflorum; Dosage 80 g/ha): 80

Structure (SMILES): C=CCSCc1c(C(F)(F)F)ccc(C(=O)Nc2nnnn2CCC)c1Cl [Example 3-308]
- herbicidal action CYPES (Cyperus esculentus [1]; Dosage 80 g/ha): 90

Structure (SMILES): CCCn1nnnc1NC(=O)c1ccc(C(F)(F)F)c(CSCC(F)(F)F)c1Cl [Example 3-311]
- herbicidal action HORMU (Hordeum murinum): 90

Structure (SMILES): Cn1nnnc1NC(=O)c1ccc(I)c(CS(C)(=O)=O)c1Cl [Example 1-364]
- herbicidal activity DIGSA (Digitaria sanguinalis [2]): 100%
- herbicidal action DIGSA (Digitaria sanguinalis [3]): 100

Structure (SMILES): CCn1nnnc1NC(=O)c1ccc(C(F)(F)F)c(C[S+]([O-])CC)c1Br (stereo not drawn) [Example 2-384]
- herbicidal action LOLMU (Lolium multiflorum; post-emergence, dosage 80 g/ha): 80%

Structure (SMILES): CCn1nnnc1NC(=O)c1ccc(C(F)(F)F)c(CSCC(F)(F)F)c1Cl [Example 2-311]
- herbicidal action HORMU (Hordeum murinum): 80
